Experimental data from patent publication US20260125360A1, “HERBICIDAL IMIDAZOLE COMPOUNDS” (SYNGENTA CROP PROTECTION AG, priority 2022, published 2026).

Key:
Assay type in all cases: in vivo
Conditions in all cases: 250 g/ha, evaluated after 13 days
[1] = system: Amaranthus palmeri (AMAPA); experiment: Post-emergence herbicide glasshouse test
Method in brief: (§1)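 Spray: acetone/water 50:50 + 0.5% Tween 20, 250 g/ha unless stated; 1 d (pre) or 8 d (post) after sowing. Glasshouse 24/16° C, 14 h light, 65% RH, watered twice daily. Read-out at 13 d: % damage binned 1–5 (5=81-100%, 1=0-20%).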

[2] = system: Amaranthus retoflexus (AMARE); experiment: Post-emergence herbicide glasshouse test
Method in brief: as §1

[3] = system: Echinochloa crus-galli (ECHCG); experiment: Post-emergence herbicide glasshouse test
Method in brief: as §1

[4] = system: Ipomoea hederacea (IPOHE); experiment: Post-emergence herbicide glasshouse test
Method in brief: as §1

[5] = system: Amaranthus palmeri (AMAPA); experiment: Pre-emergence herbicide glasshouse test
Method in brief: as §1

[6] = system: Amaranthus retoflexus (AMARE); experiment: Pre-emergence herbicide glasshouse test
Method in brief: as §1

[7] = system: Echinochloa crus-galli (ECHCG); experiment: Pre-emergence herbicide glasshouse test
Method in brief: as §1

[8] = system: Ipomoea hederacea (IPOHE); experiment: Pre-emergence herbicide glasshouse test
Method in brief: as §1

Structure (SMILES)	percentage damage caused to the plant, AMAPA (five-point scale) [1]	percentage damage caused to the plant, AMARE (five-point scale) [2]	percentage damage caused to the plant, ECHCG (five-point scale) [3]	percentage damage caused to the plant, IPOHE (five-point scale) [4]	percentage damage caused to the plant, AMAPA (five-point scale) [5]	percentage damage caused to the plant, AMARE (five-point scale) [6]	percentage damage caused to the plant, ECHCG (five-point scale) [7]	percentage damage caused to the plant, IPOHE (five-point scale) [8]
FC(F)(F)c1cn(Cc2ccsn2)c(-c2ccc(Cl)nc2)n1 [Compound 1.077]	4 (4=61-80%)	4 (4=61-80%)	1 (1=0-20%)	1 (1=0-20%)	5 (5=81-100%)	5 (5=81-100%)	1 (1=0-20%)	1 (1=0-20%)
Fc1ncc(-c2nc(C(F)(F)F)cn2Cc2ccc(Cl)s2)cc1Cl [Compound 1.152]	5 (5=81-100%)	5 (5=81-100%)	1 (1=0-20%)	2 (2=21-40%)	5 (5=81-100%)	5 (5=81-100%)	3 (3=41-60%)	1 (1=0-20%)
Cc1cc(Cn2cc(C(F)(F)F)nc2-c2cnc(Cl)c(F)c2)ns1 [Compound 1.027]	4 (4=61-80%)	4 (4=61-80%)	4 (4=61-80%)	4 (4=61-80%)	5 (5=81-100%)	5 (5=81-100%)	3 (3=41-60%)	4 (4=61-80%)
Cc1coc(Cn2cc(C(F)(F)F)nc2-c2ccc(Cl)nc2)n1 [Compound 1.096]	5 (5=81-100%)	5 (5=81-100%)	4 (4=61-80%)	3 (3=41-60%)	5 (5=81-100%)	5 (5=81-100%)	5 (5=81-100%)	5 (5=81-100%)
CS(=O)(=O)c1ccc(-c2nc(C(F)(F)F)cn2Cc2ccc(Cl)s2)cc1 [Compound 1.175]	4 (4=61-80%)	4 (4=61-80%)	1 (1=0-20%)	2 (2=21-40%)	4 (4=61-80%)	5 (5=81-100%)	2 (2=21-40%)	1 (1=0-20%)
CC(C)(C)c1nc(Cn2cc(C(F)(F)F)nc2-c2ccc(C(F)(F)F)cc2)no1 [Compound 1.004]	1 (1=0-20%)	1 (1=0-20%)	1 (1=0-20%)	2 (2=21-40%)	1 (1=0-20%)	1 (1=0-20%)	1 (1=0-20%)	1 (1=0-20%)
Fc1cc(-c2nc(C(F)(F)F)cn2Cc2cc(C3CC3)on2)cnc1Cl [Compound 1.028]	3 (3=41-60%)	4 (4=61-80%)	1 (1=0-20%)	1 (1=0-20%)	5 (5=81-100%)	5 (5=81-100%)	1 (1=0-20%)	4 (4=61-80%)
FC(F)(F)c1cn(Cc2sc(Cl)nc2Cl)c(-c2ccc(Cl)nc2)n1 [Compound 1.148]	1 (1=0-20%)	1 (1=0-20%)	1 (1=0-20%)	1 (1=0-20%)	1 (1=0-20%)	1 (1=0-20%)	1 (1=0-20%)	1 (1=0-20%)
Cn1cnc(Cn2cc(C(F)(F)F)nc2-c2ccc(F)c(F)c2)n1 [Compound 1.020]	5 (5=81-100%)	5 (5=81-100%)	5 (5=81-100%)	4 (4=61-80%)	5 (5=81-100%)	5 (5=81-100%)	5 (5=81-100%)	5 (5=81-100%)
Cn1ccc(Cn2cc(C(F)(F)F)nc2-c2ccc(Cl)nc2)n1 [Compound 1.045]	5 (5=81-100%)	5 (5=81-100%)	1 (1=0-20%)	4 (4=61-80%)	5 (5=81-100%)	5 (5=81-100%)	1 (1=0-20%)	5 (5=81-100%)
Cc1cc(Cn2cc(C(F)(F)F)nc2-c2ccc(C(F)(F)F)cc2)no1 [Compound 1.013]	5 (5=81-100%)	4 (4=61-80%)	4 (4=61-80%)	4 (4=61-80%)	5 (5=81-100%)	5 (5=81-100%)	5 (5=81-100%)	5 (5=81-100%)
Cn1cnc(Cn2cc(C#N)nc2-c2cnc(Cl)c(F)c2)n1 [Compound 1.182]	4 (4=61-80%)	5 (5=81-100%)	3 (3=41-60%)	3 (3=41-60%)	5 (5=81-100%)	5 (5=81-100%)	4 (4=61-80%)	5 (5=81-100%)
Cc1nnc(Cn2cc(C(F)(F)F)nc2-c2cnc(F)c(Cl)c2)s1 [Compound 1.164]	4 (4=61-80%)	5 (5=81-100%)	2 (2=21-40%)	3 (3=41-60%)	5 (5=81-100%)	5 (5=81-100%)	4 (4=61-80%)	5 (5=81-100%)
Cc1nnc(Cn2cc(C(F)(F)F)nc2-c2ccc(C(F)(F)F)cc2)s1 [Compound 1.007]	5 (5=81-100%)	5 (5=81-100%)	5 (5=81-100%)	5 (5=81-100%)	5 (5=81-100%)	5 (5=81-100%)	5 (5=81-100%)	5 (5=81-100%)
Cc1nc(Cn2cc(C(F)(F)F)nc2-c2ccc(S(C)(=O)=O)cc2)no1 [Compound 1.159]	5 (5=81-100%)	5 (5=81-100%)	2 (2=21-40%)	5 (5=81-100%)	5 (5=81-100%)	5 (5=81-100%)	1 (1=0-20%)	5 (5=81-100%)
